A short description of assay [1]: Inhibition of perforin (unknown origin) assessed as reduction in perforin-mediated cell lysis in human Jurkat T cells incubated for 30 mins by 51Cr release based gamma counting method.
Assay [2] can be described thus: Inhibition of perforin in human KHYG-1 cells pre-treated with compound for 20 mins assessed as reduction in KHYG-1 cells-mediated cell lysis of human K562 cells measured after 4 hrs by 51Cr release based gamma counting method.

The IC50 is the concentration at which inhibition is half-maximal. Turning to `O=C1c2ccc(-c3ccc(-c4cncc(NS(=O)(=O)c5ccc(F)cc5F)c4)s3)cc2CN1CC(O)CO` (configuration not stated), the IC50 in assay [1] was determined as 14.2 µM.

Take `O=C1NCc2cc(-c3ccc(-c4cncc(NS(=O)(=O)c5ccc(F)cc5F)c4)s3)cnc21`: in assay [1], the half-maximal inhibitory concentration (IC50) worked out at 5.73 µM.

For the compound `CN(C)CCN1Cc2cc(-c3ccc(-c4cncc(NS(=O)(=O)c5ccc(F)cc5F)c4)s3)ccc2C1=O`, the IC50 in assay [1] was over 20 µM.

As for `CN1Cc2cc(-c3ccc(-c4cncc(NS(=O)(=O)c5ccc(F)cc5F)c4)s3)cnc2C1=O`, the IC50 was 4.3 µM in assay [1] and 7.5 µM in assay [2].

`COc1ncc(-c2ccc(-c3cnc4c(c3)CN(C)C4=O)s2)cc1NS(=O)(=O)c1ccc(F)cc1F`: the IC50 in assay [1] turned out to be 3.34 µM; in assay [2] it was 4.43 µM.

With `O=C1NCc2ncc(-c3ccc(-c4cncc(NS(=O)(=O)c5ccc(F)cc5F)c4)s3)cc21`, the IC50 in assay [1] is over 20 µM; in assay [2], 6.8 µM.

For the compound `COc1ncc(-c2ccc(-c3cnc4c(c3)CN(C)C4=O)s2)cc1NS(=O)(=O)c1ccccc1[N+](=O)[O-]`, the values for the IC50 in assay [1] and in assay [2] were 2.3 µM and 1.6 µM, respectively.

Regarding `CN1Cc2cc(-c3ccc(-c4cncc(NS(=O)(=O)c5ccccc5C(F)(F)F)c4)s3)cnc2C1=O`, the IC50 in assay [1] turned out to be 1.38 µM; in assay [2], 3.3 µM.

`O=C1c2ccc(-c3ccc(-c4cncc(NS(=O)(=O)c5ccc(F)cc5F)c4)s3)cc2CN1CCCO`: in assay [1], the IC50 was over 20 µM.

Take `COc1ncc(-c2ccc(-c3cnc4c(c3)CN(C)C4=O)s2)cc1NS(=O)(=O)c1ccccc1C(F)(F)F`: the IC50 amounted to 0.78 µM in assay [1] and 2.21 µM in assay [2].

Consider `CN1Cc2cc(-c3ccc(-c4cncc(NS(=O)(=O)c5cccc(C(F)(F)F)c5)c4)s3)cnc2C1=O`, for which the IC50 in assay [1] is over 20 µM; in assay [2], 3.4 µM.

Consider `O=C1c2ccc(-c3ccc(-c4cncc(NS(=O)(=O)c5ccc(F)cc5F)c4)s3)cc2CN1CCN1CCOCC1`, for which, in assay [1], the concentration for half-maximal inhibition (IC50) was 17 µM.

As to `O=C1c2ccc(-c3ccc(-c4cncc(NS(=O)(=O)c5ccc(F)cc5F)c4)s3)cc2CN1CCN1CCCC1`, in assay [1], the IC50 is over 20 µM.

On to `CN1CCN(CCN2Cc3cc(-c4ccc(-c5cncc(NS(=O)(=O)c6ccc(F)cc6F)c5)s4)ccc3C2=O)CC1`, for which, in assay [1], the IC50 is over 20 µM.

Turning to `O=C1c2ccc(-c3ccc(-c4cncc(NS(=O)(=O)c5ccc(F)cc5F)c4)s3)cc2CN1CCN1CCCCC1`, the IC50 in assay [1] is over 20 µM.

(Values after BindingDB's records for doi:10.1021/acs.jmedchem.9b00881 (University of Auckland, 2020).)
